# Results reported in patent US7647217B2, “Structure of the farnesoid X receptor ligand binding domain and methods of use therefor” (The Salk Institute for Biological Studies, priority 2002, dated 2010).
# Target: T1, hPXR (Homo sapiens, UniProt O75469)
# T1 construct: expressed in transfected cells; host or cells: CV-1 (monkey)
# T1 sequence (O75469 146-433 limits assumed): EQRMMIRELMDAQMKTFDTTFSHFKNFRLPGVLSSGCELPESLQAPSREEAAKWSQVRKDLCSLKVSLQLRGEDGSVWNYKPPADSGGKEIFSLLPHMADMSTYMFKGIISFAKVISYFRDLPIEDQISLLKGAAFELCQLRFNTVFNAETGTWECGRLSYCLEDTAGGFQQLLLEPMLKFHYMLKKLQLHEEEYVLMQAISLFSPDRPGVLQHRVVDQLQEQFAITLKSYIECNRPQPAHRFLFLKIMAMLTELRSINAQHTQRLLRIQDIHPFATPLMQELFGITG
# Assay: GAL4 chimeric NHR cross-reactivity assay
# Format: cell-based
# Details: 10 μM
# Procedure: FIGS. 3A-3E collectively show the results of ligand activation of CV-1 cells co-transfected with a luciferase reporter gene with a variety of receptor expression constructs. […] FIGS. 3C-3E show the results of CV-1 cells transiently transfected with the indicated reporter constructs, treated with either DMSO or 10 μM of the compounds fexaramine (3C), fexarine (3D), fexarene (3E). Reporter activity was normalized to the internal control and the data plotted as fold activation relative to untreated cells. All transfections contained CMX-βgal as an internal control.
# The expression plasmids pCMX, pCMX-LacZ, pCMX-mFXRFL, pCMX-hRXRFL, pCMX-GALDBD-rFXRLBD and other pCUX-GALDBD-NR LBDs (hRXRα, hPPARαγδ, mPXR, hPXR, hLXRα, HTRβ, hRARβ, mCAR, mERR3 and hVDR) have been described elsewhere (Blumberg et al. (1998). SXR, a novel steroid and xenobiotic-sensing nuclear receptor. Genes Dev. 12(20), 3195-205). The reporter plasmids pMH2004-TK-luc, pTKECRE*6-luc, pTKER-8*2-luc and pMRP-2-luc also have been described elsewhere. The hPLTP-luc promoter was kindly provided by Dr Dennis Dowhan and the hIBABP-luc promoter was created from a plasmid provided by Dr Philippe Besnard.
# Cell-based transcriptional activation assays using chimeric nuclear hormone receptor (NHR) constructs were established to measure the selectivity of the compounds to FXR relative to other NHRs (Forman et al. (1995). Identification of a nuclear receptor that is activated by farnesol metabolites. Cell 81, 687-693). These assays used fusion proteins with the yeast GAL4 DNA binding domain connected to the ligand-binding domain (LBD) of NHRs. These constructs were co-transfected with a thymidine kinase C minimal promoter reporter vector containing four copies of the GAL4 binding site. Titration experiments were then performed using the identified compounds. […] Addition of RXR had no effect on the activation potential of fexaramine, fexarine, fexarene in this assay.
# No activity was observed on other chimeric NHR constructs including hRXRα, hPPARαγδ, mPXR, hPXR, hLXRα, hTRβ, hRARβ, mCAR, mERR3 and hVDR (see FIGS. 3C-3E).
row,SMILES,activity on chimeric hPXR construct
1,COC(=O)/C=C/c1cccc(N(Cc2ccc(-c3ccc4c(c3)OCO4)cc2)C(=O)C2CCCCC2)c1 [fexarine],No activity
2,COC(=O)/C=C/c1cccc(N(Cc2ccc(/C=C/c3ccccc3)cc2)C(=O)C2CCCCC2)c1 [fexarene],No activity
